Source: patent US11357230B2, “Herbicidal amides” (FMC Corporation, priority 2017, dated 2022)

Key:
Assay type in all cases: in vivo
[1] = system: barnyardgrass (Echinochloa crus-galli); test: Test A postemergence, barnyardgrass; conditions: approximately 10 d
Excerpt: (§1) Seeds of plant species selected from barnyardgrass (Echinochloa crus-galli), kochia (Kochia scoparia), ragweed (common ragweed, Ambrosia elatior), ryegrass, Italian (Italian ryegrass, Lolium multiflorum), foxtail, green (green foxtail, Setaria viridis), and pigweed (Amaranthus retroflexus) were planted into a blend of loam soil and sand and treated preemergence with a directed soil spray using test chemicals formulated in a non-phytotoxic solvent mixture which included a surfactant. At the same time, plants selected from these weed species and also wheat (Triticum aestivum), corn (Zea mays), blackgrass (Alopecurus myosuroides), and galium (catchweed bedstraw, Galium aparine) were planted in pots containing the same blend of loam soil and sand and treated with postemergence applications of test chemicals formulated in the same manner. Plants ranged in height from 2 to 10 cm and were in the one- to two-leaf stage for the postemergence treatment. Treated plants and untreated controls were maintained in a greenhouse for approximately 10 d, after which time all treated plants were compared to untreated controls and visually evaluated for injury. Plant response ratings, summarized in Table A, are based on a 0 to 100 scale where 0 is no effect and 100 is complete control. A dash (-) response means no test result.

[2] = system: blackgrass (Alopecurus myosuroides); test: Test A postemergence, blackgrass; conditions: approximately 10 d
Excerpt: as §1

[3] = system: corn (Zea mays); test: Test A postemergence, corn; conditions: approximately 10 d
Excerpt: as §1

[4] = system: Foxtail, Giant; test: Test A postemergence, giant foxtail; conditions: approximately 10 d
[5] = system: galium (catchweed bedstraw, Galium aparine); test: Test A postemergence, galium; conditions: approximately 10 d
Excerpt: as §1

[6] = system: kochia (Kochia scoparia); test: Test A postemergence, kochia; conditions: approximately 10 d
Excerpt: as §1

[7] = system: pigweed (Amaranthus retroflexus); test: Test A postemergence, pigweed; conditions: approximately 10 d
Excerpt: as §1

[8] = system: ragweed (common ragweed, Ambrosia elatior); test: Test A postemergence, ragweed; conditions: approximately 10 d
Excerpt: as §1

[9] = system: ryegrass, Italian (Italian ryegrass, Lolium multiflorum); test: Test A postemergence, Italian ryegrass; conditions: approximately 10 d
Excerpt: as §1

[10] = system: wheat (Triticum aestivum); test: Test A postemergence, wheat; conditions: approximately 10 d
Excerpt: as §1

[11] = system: barnyardgrass (Echinochloa crus-galli); test: Test A preemergence, barnyardgrass; conditions: approximately 10 d
Excerpt: as §1

[12] = system: Foxtail, Giant; test: Test A preemergence, giant foxtail; conditions: approximately 10 d
[13] = system: kochia (Kochia scoparia); test: Test A preemergence, kochia; conditions: approximately 10 d
Excerpt: as §1

[14] = system: pigweed (Amaranthus retroflexus); test: Test A preemergence, pigweed; conditions: approximately 10 d
Excerpt: as §1

[15] = system: ragweed (common ragweed, Ambrosia elatior); test: Test A preemergence, ragweed; conditions: approximately 10 d
Excerpt: as §1

[16] = system: ryegrass, Italian (Italian ryegrass, Lolium multiflorum); test: Test A preemergence, Italian ryegrass; conditions: approximately 10 d
Excerpt: as §1

[17] = system: barnyardgrass (Echinochloa crus-galli); test: Test B flooded paddy test, barnyardgrass; conditions: 250 g ai/ha, Flood (paddy water), 13 to 15 d
Description: (§2) Plant species in the flooded paddy test selected from rice (Oryza sativa), sedge, umbrella (small-flower umbrella sedge, Cyperus difformis), ducksalad (Heteranthera limosa), and barnyardgrass (Echinochloa crus-galli) were grown to the 2-leaf stage for testing. At time of treatment, test pots were flooded to 3 cm above the soil surface, treated by application of test compounds directly to the paddy water, and then maintained at that water depth for the duration of the test. Treated plants and controls were maintained in a greenhouse for 13 to 15 d, after which time all species were compared to controls and visually evaluated. Plant response ratings, summarized in Table B, are based on a scale of 0 to 100 where 0 is no effect and 100 is complete control. A dash (-) response means no test result.

[18] = system: ducksalad (Heteranthera limosa); test: Test B flooded paddy test, ducksalad; conditions: 250 g ai/ha, Flood (paddy water), 13 to 15 d
Description: as §2

[19] = system: rice (Oryza sativa); test: Test B flooded paddy test, rice; conditions: 250 g ai/ha, Flood (paddy water), 13 to 15 d
Description: as §2

[20] = system: sedge, umbrella (small-flower umbrella sedge, Cyperus difformis); test: Test B flooded paddy test, umbrella sedge; conditions: 250 g ai/ha, Flood (paddy water), 13 to 15 d
Description: as §2

CN(C)N=C1[C@H](C(=O)Nc2cccc(F)c2F)[C@@H](c2ccc(C(F)(F)F)cc2)CN1C (relative stereo) [Compound 4]
Plant response rating (0 to 100 scale, 0 is no effect, 100 is complete control) ([1]; 31 g ai/ha): 0 | Plant response rating (0 to 100 scale, 0 is no effect, 100 is complete control) ([1]; 125 g ai/ha): 60 | Plant response rating (0 to 100 scale, 0 is no effect, 100 is complete control) ([2]; 31 g ai/ha): 30 | Plant response rating (0 to 100 scale, 0 is no effect, 100 is complete control) ([2]; 125 g ai/ha): 50 | Plant response rating (0 to 100 scale, 0 is no effect, 100 is complete control) ([3]; 31 g ai/ha): 0 | Plant response rating (0 to 100 scale, 0 is no effect, 100 is complete control) ([3]; 125 g ai/ha): 20 | Plant response rating (0 to 100 scale, 0 is no effect, 100 is complete control) ([4]; 31 g ai/ha): 0 | Plant response rating (0 to 100 scale, 0 is no effect, 100 is complete control) ([4]; 125 g ai/ha): 80 | Plant response rating (0 to 100 scale, 0 is no effect, 100 is complete control) ([5]; 31 g ai/ha): 60 | Plant response rating (0 to 100 scale, 0 is no effect, 100 is complete control) ([5]; 125 g ai/ha): 70 | Plant response rating (0 to 100 scale, 0 is no effect, 100 is complete control) ([6]; 31 g ai/ha): 0 | Plant response rating (0 to 100 scale, 0 is no effect, 100 is complete control) ([6]; 125 g ai/ha): 40 | Plant response rating (0 to 100 scale, 0 is no effect, 100 is complete control) ([7]; 31 g ai/ha): 0 | Plant response rating (0 to 100 scale, 0 is no effect, 100 is complete control) ([7]; 125 g ai/ha): 70 | Plant response rating (0 to 100 scale, 0 is no effect, 100 is complete control) ([8]; 31 g ai/ha): 0 | Plant response rating (0 to 100 scale, 0 is no effect, 100 is complete control) ([8]; 125 g ai/ha): 30 | Plant response rating (0 to 100 scale, 0 is no effect, 100 is complete control) ([9]; 31 g ai/ha): 0 | Plant response rating (0 to 100 scale, 0 is no effect, 100 is complete control) ([9]; 125 g ai/ha): 20 | Plant response rating (0 to 100 scale, 0 is no effect, 100 is complete control) ([10]; 31 g ai/ha): 0 | Plant response rating (0 to 100 scale, 0 is no effect, 100 is complete control) ([10]; 125 g ai/ha): 20 | Plant response rating (0 to 100 scale, 0 is no effect, 100 is complete control) ([11]; 31 g ai/ha): 50 | Plant response rating (0 to 100 scale, 0 is no effect, 100 is complete control) ([11]; 125 g ai/ha): 90 | Plant response rating (0 to 100 scale, 0 is no effect, 100 is complete control) ([12]; 31 g ai/ha): 50 | Plant response rating (0 to 100 scale, 0 is no effect, 100 is complete control) ([12]; 125 g ai/ha): 90 | Plant response rating (0 to 100 scale, 0 is no effect, 100 is complete control) ([13]; 31 g ai/ha): 0 | Plant response rating (0 to 100 scale, 0 is no effect, 100 is complete control) ([13]; 125 g ai/ha): 30 | Plant response rating (0 to 100 scale, 0 is no effect, 100 is complete control) ([14]; 31 g ai/ha): 0 | Plant response rating (0 to 100 scale, 0 is no effect, 100 is complete control) ([14]; 125 g ai/ha): 60 | Plant response rating (0 to 100 scale, 0 is no effect, 100 is complete control) ([15]; 31 g ai/ha): 0 | Plant response rating (0 to 100 scale, 0 is no effect, 100 is complete control) ([15]; 125 g ai/ha): 0 | Plant response rating (0 to 100 scale, 0 is no effect, 100 is complete control) ([16]; 31 g ai/ha): 0 | Plant response rating (0 to 100 scale, 0 is no effect, 100 is complete control) ([16]; 125 g ai/ha): 10 | Plant response rating (scale of 0 to 100, 0 is no effect, 100 is complete control) [17]: 55 | Plant response rating (scale of 0 to 100, 0 is no effect, 100 is complete control) [18]: 75 | Plant response rating (scale of 0 to 100, 0 is no effect, 100 is complete control) [19]: 0 | Plant response rating (scale of 0 to 100, 0 is no effect, 100 is complete control) [20]: 0

CC(=O)NN=C1[C@H](C(=O)Nc2cccc(F)c2F)[C@@H](c2ccc(C(F)(F)F)cc2)CN1C (relative stereo) [Compound 5]
Plant response rating (0 to 100 scale, 0 is no effect, 100 is complete control) ([1]; 31 g ai/ha): 60 | Plant response rating (0 to 100 scale, 0 is no effect, 100 is complete control) ([1]; 125 g ai/ha): 80 | Plant response rating (0 to 100 scale, 0 is no effect, 100 is complete control) ([2]; 31 g ai/ha): 60 | Plant response rating (0 to 100 scale, 0 is no effect, 100 is complete control) ([2]; 125 g ai/ha): 80 | Plant response rating (0 to 100 scale, 0 is no effect, 100 is complete control) ([3]; 31 g ai/ha): 0 | Plant response rating (0 to 100 scale, 0 is no effect, 100 is complete control) ([3]; 125 g ai/ha): 40 | Plant response rating (0 to 100 scale, 0 is no effect, 100 is complete control) ([4]; 31 g ai/ha): 70 | Plant response rating (0 to 100 scale, 0 is no effect, 100 is complete control) ([4]; 125 g ai/ha): 80 | Plant response rating (0 to 100 scale, 0 is no effect, 100 is complete control) ([5]; 31 g ai/ha): 70 | Plant response rating (0 to 100 scale, 0 is no effect, 100 is complete control) ([5]; 125 g ai/ha): 80 | Plant response rating (0 to 100 scale, 0 is no effect, 100 is complete control) ([6]; 31 g ai/ha): 20 | Plant response rating (0 to 100 scale, 0 is no effect, 100 is complete control) ([6]; 125 g ai/ha): 30 | Plant response rating (0 to 100 scale, 0 is no effect, 100 is complete control) ([7]; 31 g ai/ha): 30 | Plant response rating (0 to 100 scale, 0 is no effect, 100 is complete control) ([7]; 125 g ai/ha): 80 | Plant response rating (0 to 100 scale, 0 is no effect, 100 is complete control) ([8]; 31 g ai/ha): 0 | Plant response rating (0 to 100 scale, 0 is no effect, 100 is complete control) ([8]; 125 g ai/ha): 0 | Plant response rating (0 to 100 scale, 0 is no effect, 100 is complete control) ([9]; 31 g ai/ha): 10 | Plant response rating (0 to 100 scale, 0 is no effect, 100 is complete control) ([9]; 125 g ai/ha): 80 | Plant response rating (0 to 100 scale, 0 is no effect, 100 is complete control) ([10]; 31 g ai/ha): 0 | Plant response rating (0 to 100 scale, 0 is no effect, 100 is complete control) ([10]; 125 g ai/ha): 50 | Plant response rating (0 to 100 scale, 0 is no effect, 100 is complete control) ([11]; 31 g ai/ha): 90 | Plant response rating (0 to 100 scale, 0 is no effect, 100 is complete control) ([11]; 125 g ai/ha): 90 | Plant response rating (0 to 100 scale, 0 is no effect, 100 is complete control) ([12]; 31 g ai/ha): 90 | Plant response rating (0 to 100 scale, 0 is no effect, 100 is complete control) ([12]; 125 g ai/ha): 90 | Plant response rating (0 to 100 scale, 0 is no effect, 100 is complete control) ([13]; 31 g ai/ha): 10 | Plant response rating (0 to 100 scale, 0 is no effect, 100 is complete control) ([13]; 125 g ai/ha): 90 | Plant response rating (0 to 100 scale, 0 is no effect, 100 is complete control) ([14]; 31 g ai/ha): 70 | Plant response rating (0 to 100 scale, 0 is no effect, 100 is complete control) ([14]; 125 g ai/ha): 80 | Plant response rating (0 to 100 scale, 0 is no effect, 100 is complete control) ([15]; 31 g ai/ha): 0 | Plant response rating (0 to 100 scale, 0 is no effect, 100 is complete control) ([15]; 125 g ai/ha): 70 | Plant response rating (0 to 100 scale, 0 is no effect, 100 is complete control) ([16]; 31 g ai/ha): 20 | Plant response rating (0 to 100 scale, 0 is no effect, 100 is complete control) ([16]; 125 g ai/ha): 90 | Plant response rating (scale of 0 to 100, 0 is no effect, 100 is complete control) [17]: 45 | Plant response rating (scale of 0 to 100, 0 is no effect, 100 is complete control) [18]: 65 | Plant response rating (scale of 0 to 100, 0 is no effect, 100 is complete control) [19]: 0 | Plant response rating (scale of 0 to 100, 0 is no effect, 100 is complete control) [20]: 0
